From article PMC5201331, “Subchronic Toxicities of HZ1006, a Hydroxamate-Based Histone Deacetylase Inhibitor, in Beagle Dogs and Sprague-Dawley Rats” (International Journal of Environmental Research and Public …, 2016)

Test system: Beagle dogs
Assay: Subchronic toxicity test in Beagle dogs: hematology
Format: in vivo
Procedure: HZ1006 was administered orally to dogs (four/sex/group) at doses of 80, 40, 20, 5 and 0 (control) mg/kg/day, and the dosage volume was 2 mL/kg. The dogs received test doses with the exact amounts on a weekly basis based on current body weights. […] The other dogs in the above groups were dissected on the planned days. For the other groups, half of the dogs were anatomized on d28 and the remaining half on d42.
The following indexes were examined for the dogs used in the study, twice during the pre-dosage period and on d14, d28 and d42. The following parameters were evaluated on d28 and d42 for the rats in the study:
Blood samples of the animals were collected in tubes containing ethylenediamine tetraacetic acid (EDTA) and tested using an ADVIA2120 Hematology Autoanalyzer (Bayer, Leverkusen, Germany). The following indexes were examined: hemoglobin concentration (Hb), red blood cell count (RBC),mean corpuscular volume (MCV), hematocrit (HCT), mean corpuscular hemoglobin concentration (MCHC), mean corpuscular hemoglobin (MCH), white blood cell count (WBC), platelet count (Plt), WBC differential counts [neutrophilcyte (Neu), eosinophilic granulocyte (Eos), basophilic leukocyte (Bas), lymphocyte (Lym), and monocyte (Mon)] and reticulocytes (Ret). The serum coagulation times of the blood samples (1.8-mL samples were mixed with 0.2 mL sodium citrate), including prothrombin time (PT), fibrinogen (FIB), activated partial thromboplastin time (APTT), and thrombin time (TT), were tested using an MC10 plus Blood Coagulation Analyzer from Shanghai San Jose Medical Products Co., Ltd. (Shanghai, China).

[1] = dog ♀6 (80 mg/kg/day oral), d0 (pre-dose)
[2] = dog ♀6 (80 mg/kg/day oral), d14 line (moribund, euthanized d8)
[3] = dog ♀28 (40 mg/kg/day oral), d0 (pre-dose)
[4] = dog ♀28 (40 mg/kg/day oral), d14 (died d16)
[5] = dogs, 5 mg/kg/day oral, d0 (pre-dose)
[6] = dogs, 5 mg/kg/day oral, d42 (recovery)
[7] = dogs, 20 mg/kg/day oral, d0 (pre-dose)
[8] = dogs, 20 mg/kg/day oral, d42 (recovery)
[9] = dogs, 40 mg/kg/day oral, d0 (pre-dose)
[10] = dogs, 40 mg/kg/day oral, d42 (recovery)
[11] = dogs, 80 mg/kg/day oral, d0 (pre-dose)
[12] = dogs, 80 mg/kg/day oral, d42 (recovery)

## CCCCCCCNc1cc(/C=C/C(=O)NO)ccc1OCCN(CC)CC [HZ1006]
[1]
  APTT: Activated partial thromboplastin time: 13.9 s
  RET: Reticulocytes: 1.37%
[2]
  APTT: Activated partial thromboplastin time: 48.7 s
  RET: Reticulocytes: 0.14%
[3]
  APTT: Activated partial thromboplastin time: 12.4 s
  RET: Reticulocytes: 0.75%
[4]
  APTT: Activated partial thromboplastin time: 18.5 s
  RET: Reticulocytes: 0.04%
[5]
  APTT: Activated partial thromboplastin time: 13.6 ± 0.6 s
  FIB: Fibrinogen: 2.25 ± 0.37 g/L
  HCT: Hematocrit: 43.0 ± 2.6%
  HGB: Hemoglobin concentration: 139 ± 8 g/L
  MON: Monocyte: 4.4 ± 1.6%
  RBC: Red blood cell count: 6.31 ± 0.45 ×10^12/L
  RET: Reticulocytes: 0.77 ± 0.38%
dogs, 5 mg/kg/day oral, d14
  APTT: Activated partial thromboplastin time: 13.2 ± 0.6 s
  FIB: Fibrinogen: 2.53 ± 0.46 g/L
  HCT: Hematocrit: 41.8 ± 2.7%
  HGB: Hemoglobin concentration: 138 ± 9 g/L
  MON: Monocyte: 4.2 ± 1.0%
  RBC: Red blood cell count: 6.23 ± 0.46 ×10^12/L
  RET: Reticulocytes: 0.62 ± 0.29%
dogs, 5 mg/kg/day oral, d28
  APTT: Activated partial thromboplastin time: 13.1 ± 0.5 s
  FIB: Fibrinogen: 2.56 ± 0.40 g/L
  HCT: Hematocrit: 41.6 ± 2.4%
  HGB: Hemoglobin concentration: 135 ± 8 g/L
  MON: Monocyte: 4.4 ± 1.4%
  RBC: Red blood cell count: 6.22 ± 0.43 ×10^12/L
  RET: Reticulocytes: 0.49 ± 0.23%
[6]
  APTT: Activated partial thromboplastin time: 13.4 ± 0.4 s
  FIB: Fibrinogen: 2.89 ± 0.60 g/L
  HCT: Hematocrit: 41.0 ± 1.8%
  HGB: Hemoglobin concentration: 134 ± 7 g/L
  MON: Monocyte: 4.0 ± 1.2%
  RBC: Red blood cell count: 6.21 ± 0.36 ×10^12/L
  RET: Reticulocytes: 0.61 ± 0.22%
[7]
  APTT: Activated partial thromboplastin time: 12.4 ± 0.3 s
  FIB: Fibrinogen: 4.07 ± 0.94 g/L
  HCT: Hematocrit: 42.2 ± 3.9%
  HGB: Hemoglobin concentration: 142 ± 13 g/L
  MON: Monocyte: 4.7 ± 1.3%
  RBC: Red blood cell count: 6.20 ± 0.58 ×10^12/L
  RET: Reticulocytes: 0.96 ± 0.24%
dogs, 20 mg/kg/day oral, d14
  APTT: Activated partial thromboplastin time: 12.5 ± 0.5 s
  FIB: Fibrinogen: 4.30 ± 1.17 g/L
  HCT: Hematocrit: 36.9 ± 2.2 %
  HGB: Hemoglobin concentration: 118 ± 7 g/L
  MON: Monocyte: 8.0 ± 2.3 %
  RBC: Red blood cell count: 5.57 ± 0.30 ×10^12/L
  RET: Reticulocytes: 0.53 ± 0.23 %
dogs, 20 mg/kg/day oral, d28
  APTT: Activated partial thromboplastin time: 12.0 ± 0.7 s
  FIB: Fibrinogen: 4.48 ± 1.68 g/L
  HCT: Hematocrit: 36.6 ± 1.0 %
  HGB: Hemoglobin concentration: 118 ± 3 g/L
  MON: Monocyte: 9.0 ± 1.4 %
  RBC: Red blood cell count: 5.57 ± 0.16 ×10^12/L
  RET: Reticulocytes: 0.54 ± 0.19 %
[8]
  APTT: Activated partial thromboplastin time: 12.8 ± 0.3 s
  FIB: Fibrinogen: 4.26 ± 0.49 g/L
  HCT: Hematocrit: 39.4 ± 1.7%
  HGB: Hemoglobin concentration: 128 ± 8 g/L
  MON: Monocyte: 5.8 ± 1.0%
  RBC: Red blood cell count: 5.96 ± 0.13 ×10^12/L
  RET: Reticulocytes: 0.83 ± 0.23%
[9]
  APTT: Activated partial thromboplastin time: 12.8 ± 0.5 s
  FIB: Fibrinogen: 4.84 ± 0.89 g/L
  HCT: Hematocrit: 41.7 ± 2.0%
  HGB: Hemoglobin concentration: 139 ± 6 g/L
  MON: Monocyte: 6.0 ± 1.8%
  RBC: Red blood cell count: 6.01 ± 0.31 ×10^12/L
  RET: Reticulocytes: 0.86 ± 0.17%
dogs, 40 mg/kg/day oral, d14
  APTT: Activated partial thromboplastin time: 16.8 ± 0.7 s
  FIB: Fibrinogen: 7.19 ± 1.58 g/L
  HCT: Hematocrit: 35.5 ± 2.6 %
  HGB: Hemoglobin concentration: 114 ± 8 g/L
  MON: Monocyte: 9.2 ± 5.3%
  RBC: Red blood cell count: 5.6 ± 0.36 ×10^12/L
  RET: Reticulocytes: 0.13 ± 0.11 %
dogs, 40 mg/kg/day oral, d28
  APTT: Activated partial thromboplastin time: 12.8 ± 0.8 s
  FIB: Fibrinogen: 4.93 ± 1.22 g/L
  HCT: Hematocrit: 32.8 ± 2.8 %
  HGB: Hemoglobin concentration: 105 ± 9 g/L
  MON: Monocyte: 11.6 ± 4.5 %
  RBC: Red blood cell count: 5.00 ± 0.47 ×10^12/L
  RET: Reticulocytes: 0.51 ± 0.22 %
[10]
  APTT: Activated partial thromboplastin time: 12.9 ± 0.8 s
  FIB: Fibrinogen: 4.22 ± 1.25 g/L
  HCT: Hematocrit: 39.7 ± 0.1%
  HGB: Hemoglobin concentration: 124 ± 1 g/L
  MON: Monocyte: 6.4 ± 3.5%
  RBC: Red blood cell count: 5.96 ± 0.06 ×10^12/L
  RET: Reticulocytes: 0.89 ± 0.65%
[11]
  APTT: Activated partial thromboplastin time: 13.4 ± 0.6 s
  FIB: Fibrinogen: 3.80 ± 0.84 g/L
  HCT: Hematocrit: 40.3 ± 3.0%
  HGB: Hemoglobin concentration: 134 ± 10 g/L
  MON: Monocyte: 5.0 ± 0.8%
  RBC: Red blood cell count: 5.92 ± 0.42 ×10^12/L
  RET: Reticulocytes: 0.92 ± 0.27%
dogs, 80 mg/kg/day oral, d14
  APTT: Activated partial thromboplastin time: 16.2 ± 3.0 s
  FIB: Fibrinogen: 7.06 ± 2.14 g/L
  HCT: Hematocrit: 33.4 ± 2.6 %
  HGB: Hemoglobin concentration: 107 ± 8 g/L
  MON: Monocyte: 19.7 ± 19.7 %
  RBC: Red blood cell count: 5.09 ± 0.42 ^##^,* ×10^12/L
  RET: Reticulocytes: 0.08 ± 0.12 %
dogs, 80 mg/kg/day oral, d28
  APTT: Activated partial thromboplastin time: 12.5 ± 0.5 s
  FIB: Fibrinogen: 6.69 ± 0.62 g/L
  HCT: Hematocrit: 26.9 ± 1.7 %
  HGB: Hemoglobin concentration: 86 ± 5 g/L
  MON: Monocyte: 12.5 ± 2.9 %
  RBC: Red blood cell count: 4.17 ± 0.33 ×10^12/L
  RET: Reticulocytes: 0.21 ± 0.16 %
[12]
  APTT: Activated partial thromboplastin time: 12.7 ± 0.9 s
  FIB: Fibrinogen: 3.72 ± 2.00 g/L
  HCT: Hematocrit: 37.5 ± 3.1%
  HGB: Hemoglobin concentration: 126 ± 4 g/L
  MON: Monocyte: 5.0 ± 1.9%
  RBC: Red blood cell count: 5.71 ± 0.50 ×10^12/L
  RET: Reticulocytes: 0.88 ± 0.27%
